Tests used:
Format in all cases: in vivo
[1] = tested on: Echinochloa oryzacola Vasing.; assay: Test Example 1: herbicidal activity, application before weed generation in submerged conditions (symbol A); conditions: application herbicide amount 320 g/ha
How it was run: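 Weed control was rated three weeks after treatment on a 0–5 scale, from 5% or lower up to 90% or more. Pre-emergence water-surface application of diluted emulsion at a predetermined rate was made on the day of sowing, in flooded (4 cm water) pots containing rice seedlings, kept at 25–30 °C under glass.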

[2] = tested on: Echinochloa crus-galli var. crus-galli; assay: Test Example 3: herbicidal effect by foliage application, Wagner pot (symbol H); conditions: application herbicide amount 320 g/ha
How it was run: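 Alluvial soil was flooded to a depth of 0.1–0.5 cm, seeded with the weeds and rice, and kept in a greenhouse at 25–30 °C. After 14 days of growth, the foliage received a small-sprayer application of emulsion diluted to the intended rate; injury was rated at 3 weeks.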

Galium spurium = assay: Test Example 5: herbicidal effect by foliage application, plastic box (symbol Q); conditions: 320 g/ha, 3 weeks after application
How it was run: (§1)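 Post-emergence spray; diluvial soil (sterilized), ~1.5 cm seed cover; greenhouse 25–30° C; 14-day-old plants; water-diluted emulsion at predetermined dose; visual score at 3 wk post-treatment.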

corn = assay: Test Example 4: effect on crop by soil treatment (symbol c); conditions: application herbicide amount 320 g/ha
How it was run: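 Sterilized diluvial soil, spot sowing, ~1.5 cm soil cover; greenhouse 25–30° C.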

Abutilon theophrasti = assay: Test Example 5: herbicidal effect by foliage application, plastic box (symbol M); conditions: 320 g/ha, 3 weeks after application
How it was run: as §1

soybean [3] = assay: Test Example 4: effect on crop by soil treatment (symbol d); conditions: application herbicide amount 320 g/ha
How it was run: (§2)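 Plants grew in a 25° C. to 30° C. greenhouse after spot-sowing of seeds, including beet, rapeseed, wheat and rice, into sterilized diluvial soil under roughly 1.5 cm of cover soil.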

transplanted rice plant = assay: Test Example 1: effect on crop, application before weed generation in submerged conditions (symbol a); conditions: application herbicide amount 320 g/ha
How it was run: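 Rice at 2.5 leaf stage transplanted into submerged soil (4 cm depth) sown with three weed species; herbicide applied before weed emergence.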

rice plant = assay: Test Example 5: effect on crop by foliage application, plastic box (symbol b); conditions: 320 g/ha, 3 weeks after application
How it was run: (§3)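 Crop seed is sown alongside grass and broadleaf weed species in spots in sterilized diluvial soil, then covered to a depth of about 1.5 cm. Plants grow in a greenhouse kept at 25° C. to 30° C.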

wheat = assay: Test Example 5: effect on crop by foliage application, plastic box (symbol e); conditions: 320 g/ha, 3 weeks after application
How it was run: as §3

beet [4] = assay: Test Example 5: effect on crop by foliage application, plastic box (symbol f); conditions: 320 g/ha, 3 weeks after application
How it was run: as §3

beet [5] = assay: Test Example 4: effect on crop by soil treatment (symbol f); conditions: application herbicide amount 320 g/ha
How it was run: as §2

Veronica persica = assay: Test Example 4: herbicidal effect by soil treatment (symbol R); conditions: application herbicide amount 320 g/ha
How it was run: (§4)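 Seeds were sown in sterilized diluvial soil, covered with about 1.5 cm of soil, and the soil surface was sprayed with a water-diluted emulsion of the compound at a predetermined rate. Plants grew in a greenhouse at 25° C. to 30° C.; effects were scored visually 3 weeks after application.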

soybean [6] = assay: Test Example 5: effect on crop by foliage application, plastic box (symbol d); conditions: 320 g/ha, 3 weeks after application
How it was run: as §3

Alopecurus myosuroides = assay: Test Example 5: herbicidal effect by foliage application, plastic box (symbol J); conditions: 320 g/ha, 3 weeks after application
How it was run: as §1

Stellaria media = assay: Test Example 4: herbicidal effect by soil treatment (symbol P); conditions: application herbicide amount 320 g/ha
How it was run: as §4

Compound	Herbicidal effect grade, A: Echinochloa oryzacola Vasing. [1]	herbicidal effect on H (Echinochloa crus-galli var. crus-galli), grade 0-5 [2]	c: corn, effect on crop grade (corn)	d: soybean, effect on crop grade (soybean [3])	Effect grade on crop, a: transplanted rice plant (transplanted rice plant)	f: beet, effect on crop grade (beet [5])	R: Veronica persica, herbicidal effect grade (Veronica persica)	P: Stellaria media, herbicidal effect grade (Stellaria media)	also measured
CON=C(C)CC1CC(O)=C(c2c(C)cc(-n3cncn3)cc2C)C1=O (stereo not drawn) [6-074]	1 (Herbicidal ratio of 5% or higher and lower than 20%)	4 (Herbicidal ratio of 70% or higher and lower than 90%)	0 (Herbicidal ratio of 5% or lower (almost no effect))	0 (Herbicidal ratio of 5% or lower (almost no effect))	2 (Herbicidal ratio of 20% or higher and lower than 40%)	0 (Herbicidal ratio of 5% or lower (almost no effect))	0 (Herbicidal ratio of 5% or lower (almost no effect))	0 (Herbicidal ratio of 5% or lower (almost no effect))	Q: Galium spurium, herbicidal effect (criteria of Test Example 1) (Galium spurium): 0 (Herbicidal ratio of 5% or lower (almost no effect)); M: Abutilon theophrasti, herbicidal effect (criteria of Test Example 1) (Abutilon theophrasti): 0 (Herbicidal ratio of 5% or lower (almost no effect)); b: directly sowed rice plant, effect on crop (criteria of Test Example 1) (rice plant): 2 (Herbicidal ratio of 20% or higher and lower than 40%); e: wheat, effect on crop (criteria of Test Example 1) (wheat): 0 (Herbicidal ratio of 5% or lower (almost no effect)); f: beet, effect on crop (criteria of Test Example 1) (beet [4]): 0 (Herbicidal ratio of 5% or lower (almost no effect)); d: soybean, effect on crop (criteria of Test Example 1) (soybean [6]): 0 (Herbicidal ratio of 5% or lower (almost no effect)); J: Alopecurus myosuroides, herbicidal effect (criteria of Test Example 1) (Alopecurus myosuroides): 0 (Herbicidal ratio of 5% or lower (almost no effect))
CON=C(C)CC1CC(O)=C(c2c(C)cc(C3CC3)cc2C)C1=O (stereo not drawn) [6-050]	3 (Herbicidal ratio of 40% or higher and lower than 70%)	5 (Herbicidal ratio of 90% or more (almost completely withered))	1 (Herbicidal ratio of 5% or higher and lower than 20%)	0 (Herbicidal ratio of 5% or lower (almost no effect))	4 (Herbicidal ratio of 70% or higher and lower than 90%)	0 (Herbicidal ratio of 5% or lower (almost no effect))	0 (Herbicidal ratio of 5% or lower (almost no effect))	3 (Herbicidal ratio of 40% or higher and lower than 70%)	Q: Galium spurium, herbicidal effect grade (Galium spurium): 3 (Herbicidal ratio of 40% or higher and lower than 70%); M: Abutilon theophrasti, herbicidal effect grade (Abutilon theophrasti): 0 (Herbicidal ratio of 5% or lower (almost no effect)); b: directly sowed rice plant, effect on crop grade (rice plant): 5 (Herbicidal ratio of 90% or more (almost completely withered)); e: wheat, effect on crop grade (wheat): 0 (Herbicidal ratio of 5% or lower (almost no effect)); f: beet, effect on crop grade (beet [4]): 2 (Herbicidal ratio of 20% or higher and lower than 40%); d: soybean, effect on crop grade (soybean [6]): 0 (Herbicidal ratio of 5% or lower (almost no effect)); J: Alopecurus myosuroides, herbicidal effect grade (Alopecurus myosuroides): 5 (Herbicidal ratio of 90% or more (almost completely withered))
